Tests used:
[1] = Metabolic stability in human liver microsomes (HLM); assay type: in vitro ADME; details: from HLM half-life, well-stirred model, phase I reactions; 1 μM test compound
Experimental: Metabolic stability of 4-[(11β,17β)-17-hydroxy-3-oxo-17-(pentafluoro-ethyl)estra-4,9-dien-11-yl]benzamide and 4′-[(11β,17β)-17-hydroxy-3-oxo-17-(pentafluoro-ethyl)estra-4,9-dien-11-yl]biphenyl-4-carboxamide in human liver microsomes (HLM) Isolated human liver microsomes (HLM) were used for assessing the metabolic stability of compounds of general formula I. The incubations were carried out with 2.4 ml HLM solution (0.5 mg/ml protein content), 30 μl of the test compound (final concentration 1 μM) and 0.6 ml of the cofactor mixture (=NADPH-generating system of 3 IU glucose-6-phosphate dehydrogenase, 14.6 mg glucose-6-phosphate, 1.2 mg NADP) at 37° C. in 100 mM phosphate buffer at pH 7.4. Samples are taken at 6 time points (2-60 min), precipitated with an equal volume of methanol, and the recovery of the test substances used in the supernatant is determined by LC-MS/MS analysis. The intrinsic clearance of the substance in the liver microsome assay can be calculated from the value found for the half-life of substance breakdown. Using this, on the basis of various physiological characteristics according to the well-stirred model it is possible to predict a (metabolic) in-vivo clearance with respect to phase I reactions.

[2] = biological target: T1, human progesterone receptor B (Homo sapiens, UniProt P06401); assay: Progesterone-receptor-antagonistic action in stably transfected SK-N-MC cells, MTV-LUC reporter (PR-B); assay type: cell-based; details: antagonistic potency vs 0.1 nmol/l promegestone, 24 hours, luciferase
T1 construct: expressed in transfected cells; host or cells: SK-N-MC human neuroblastoma cells, stably transfected
T1 sequence (P06401 1-933): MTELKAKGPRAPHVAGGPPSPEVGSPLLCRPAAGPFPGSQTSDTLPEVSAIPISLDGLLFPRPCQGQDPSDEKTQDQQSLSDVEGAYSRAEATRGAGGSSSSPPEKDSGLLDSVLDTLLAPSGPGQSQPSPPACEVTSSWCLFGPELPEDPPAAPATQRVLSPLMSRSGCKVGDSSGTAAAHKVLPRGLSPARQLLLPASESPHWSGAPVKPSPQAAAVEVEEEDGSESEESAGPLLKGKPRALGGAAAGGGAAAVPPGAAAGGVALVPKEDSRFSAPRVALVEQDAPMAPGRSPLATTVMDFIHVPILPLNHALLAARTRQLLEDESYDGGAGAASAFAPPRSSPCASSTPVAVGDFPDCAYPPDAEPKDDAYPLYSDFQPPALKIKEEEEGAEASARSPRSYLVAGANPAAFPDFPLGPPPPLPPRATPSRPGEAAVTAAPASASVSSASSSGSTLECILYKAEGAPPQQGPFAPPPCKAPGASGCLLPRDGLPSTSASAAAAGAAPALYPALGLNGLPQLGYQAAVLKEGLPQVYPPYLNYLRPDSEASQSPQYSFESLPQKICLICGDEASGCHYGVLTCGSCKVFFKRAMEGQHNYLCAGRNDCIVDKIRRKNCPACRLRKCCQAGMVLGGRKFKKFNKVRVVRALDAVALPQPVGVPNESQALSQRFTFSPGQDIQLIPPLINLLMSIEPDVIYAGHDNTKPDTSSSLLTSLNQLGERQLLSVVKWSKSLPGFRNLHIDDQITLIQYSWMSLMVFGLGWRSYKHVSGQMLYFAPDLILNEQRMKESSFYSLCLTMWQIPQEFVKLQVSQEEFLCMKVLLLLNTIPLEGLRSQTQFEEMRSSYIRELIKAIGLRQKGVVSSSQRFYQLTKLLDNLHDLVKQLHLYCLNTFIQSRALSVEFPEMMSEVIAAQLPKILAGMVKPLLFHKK
Experimental: Progesterone-Receptor-Antagonistic Action in Stable Transfectants of Human Neuroblastoma Cells (SK-N-MC Cells) with the Human Progesterone A or Progesterone B Receptor and an MTV-LUC Reporter Construct
SK-N-MC cells (human neuroblastoma cells) that have been stably transfected with plasmids that express the human progesterone receptor B (pRChPR-B-neo) or the human progesterone receptor A (pRChPR-A-neo) and a reporter construct (pMMTV-LUC), were incubated for 24 hours either in the absence (negative control) or in the presence of increasing amounts of the particular test compound (0.01 nmol/l, 0.1 nmol/l, 1 nmol/l, 10 nmol/l, 100 nmol/l and 1 μmol/l), to determine the agonistic efficacy. As positive control of reporter gene induction, the cells were treated with the synthetic gestagen promegestone (0.01 nmol/l, 0.1 nmol/l, 1 nmol/l, 10 nmol/l, 100 nmol/l and 1 μmol/l). For determination of the antagonistic activity, the cells were treated with 0.1 nmol/l promegestone and additionally with increasing amounts of the particular test compound (0.01 nmol/l, 0.1 nmol/l, 1 nmol/l, 10 nmol/l, 100 nmol/l and 1 μmol/l). The activity of the reporter gene LUC (LUC=luciferase) was determined in the cell lysates and was measured as RLU (relative light units). All measured values are given as % efficacy and as EC50 or IC50 concentrations.

[3] = system: pregnant rats; assay: Test as abortifacient in female rats (termination of early pregnancy); assay type: in vivo, rat; details: d5-d7 p.c., autopsy d9 p.c.
Experimental: Test as Abortifacient in Female Rats
The antagonistic action of the compounds according to the invention was tested on pregnant rats (6 rats per group) on day 5 to 7 post coitum in conventional conditions of husbandry and feeding.
After successful mating, the pregnant animals (presence of sperm in the vaginal smear on day 1 of pregnancy=d1 p.c.) were randomized and were divided into the treatment group and the control group. The animals then received, subcutaneously or orally, in each case 0.15; 0.5; 1.5 or 5 mg/kg of the test compound or 1.0 ml/kg of vehicle (benzyl benzoate/castor oil: 1+4 [v/v]) daily from day 5 to day 7 (d5-d7 p.c.).
Autopsy was carried out on day 9 (d9 p.c.). For characterization of progesterone-receptor-antagonistic action, the uterus was investigated for the presence of nidation sites. Complete absence, but also the presence of pathological, haemorrhagic or otherwise abnormal nidation sites on day 9 (d9 p.c.) was assessed as abortion.

[4] = biological target: T2, human progesterone receptor A (Homo sapiens, UniProt P06401); assay: Progesterone-receptor-antagonistic action in stably transfected SK-N-MC cells, MTV-LUC reporter (PR-A); assay type: cell-based; details: antagonistic potency vs 0.1 nmol/l promegestone, 24 hours, luciferase
T2 construct: expressed in transfected cells; host or cells: SK-N-MC human neuroblastoma cells, stably transfected
T2 sequence (P06401 1-769 isoform P06401-2): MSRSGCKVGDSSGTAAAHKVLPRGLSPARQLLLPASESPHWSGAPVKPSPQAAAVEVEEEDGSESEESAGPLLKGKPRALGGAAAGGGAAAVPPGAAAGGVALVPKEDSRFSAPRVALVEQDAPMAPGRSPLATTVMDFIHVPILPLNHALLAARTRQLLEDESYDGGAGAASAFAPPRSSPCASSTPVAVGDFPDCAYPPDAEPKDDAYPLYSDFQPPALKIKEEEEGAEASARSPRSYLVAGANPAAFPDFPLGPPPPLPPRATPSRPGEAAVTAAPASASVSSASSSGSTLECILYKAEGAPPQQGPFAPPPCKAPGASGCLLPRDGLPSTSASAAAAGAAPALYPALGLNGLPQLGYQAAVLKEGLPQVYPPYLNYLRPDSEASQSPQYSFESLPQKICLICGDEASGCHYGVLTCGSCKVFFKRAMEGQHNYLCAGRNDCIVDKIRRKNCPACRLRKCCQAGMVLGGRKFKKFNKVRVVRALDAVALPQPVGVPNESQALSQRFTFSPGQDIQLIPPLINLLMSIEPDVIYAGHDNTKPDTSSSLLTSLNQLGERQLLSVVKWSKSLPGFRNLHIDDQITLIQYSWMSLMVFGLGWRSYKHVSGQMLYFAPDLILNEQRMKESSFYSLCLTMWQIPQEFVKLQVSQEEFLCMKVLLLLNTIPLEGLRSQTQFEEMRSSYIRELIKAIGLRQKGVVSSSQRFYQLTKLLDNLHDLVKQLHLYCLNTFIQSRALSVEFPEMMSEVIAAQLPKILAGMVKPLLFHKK
How it was run: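 SK-N-MC neuroblastoma cells stably expressing human PR-B or PR-A plus MMTV-LUC reporter, treated 24 h with 0.1 nmol/l promegestone plus test compound at 0.01 nmol/l–1 μmol/l. Luciferase in lysates read as RLU; values as % efficacy and IC50.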

Structure (SMILES) | (metabolic) in-vivo clearance in humans predicted [1] [mL/min/kg] | IC50 [2] [nM] | Abortion rate ([3]; daily dose 0.5 mg/kg p.o.) [%] | Abortion rate ([3]; daily dose 1.5 mg/kg p.o.) [%] | Abortion rate ([3]; daily dose 5.0 mg/kg p.o.) [%] | IC50 [4] [nM]
C[C@]12C[C@H](c3ccc(C(N)=O)cc3)C3=C4CCC(=O)C=C4CC[C@H]3[C@@H]1CC[C@@]2(O)C(F)(F)C(F)(F)F [Example 1, 4-[(11β,17β)-17-Hydroxy-3-oxo-17-(pentafluoroethyl)estra-4,9-dien-11-yl]benzamide] | 5.5 | 0.9 | 0 | 50 | 100 | 
CC(=O)N1CCN(C(=O)c2ccc([C@H]3C[C@@]4(C)[C@@H](CC[C@@]4(O)C(F)(F)C(F)(F)F)[C@@H]4CCC5=CC(=O)CCC5=C43)cc2)CC1 [Example 74, (11β,17β)-11-{4-[(4-Acetylpiperazin-1-yl)carbonyl]phenyl}-17-hydroxy-17-(pentafluoroethyl)estra-4,9-dien-3-one] |  | 12 |  |  |  | 6.7
CC(C)(C)OC(=O)N1CCN(C(=O)c2ccc([C@H]3C[C@@]4(C)[C@@H](CC[C@@]4(O)C(F)(F)C(F)(F)F)[C@@H]4CCC5=CC(=O)CCC5=C43)cc2)CC1 [Example 4, tert-butyl-4-{4-[(11β,17β)-17-hydroxy-3-oxo-17-(pentafluoroethyl)estra-4,9-dien-11-yl]benzoyl}piperazine-1-carboxylate] |  | 1.6 |  |  |  | 0.62
